Assay results published in ChEMBL document CHEMBL1152996, “Tetracycline resistance gene tet(W) in the pathogenic bacterium Clostridium difficile” (2008).
Converted amounts (≈) assume the structure as drawn.

Tests used:
Assay type in all cases: functional
Clostridioides difficile [1] = experiment: Antibacterial activity against Clostridium difficile clinical isolate expressing tet(M) gene by Etest
Clostridioides difficile [2] = experiment: Antibacterial activity against Clostridium difficile CD5 expressing tet(W) gene
Clostridioides difficile [3] = experiment: Antibacterial activity against Clostridium difficile CD37 harboring tet(M) gene from Clostridium difficile CD5

CN(C)[C@@H]1C(O)=C(C(N)=O)C(=O)[C@@]2(O)C(O)=C3C(=O)c4c(O)cccc4[C@@](C)(O)[C@H]3C[C@@H]12 [TETRACYCLINE]
MIC (Clostridioides difficile [1]): ≥ 8 µg/mL | MIC (Clostridioides difficile [2]): 8 µg/mL (≈ 18 µM) | MIC (Clostridioides difficile [3]): 8 µg/mL (≈ 18 µM)
